Assay results published in ChEMBL document CHEMBL1201862, “PubChem BioAssay data set” (2004).
Calls of active or inactive are those of the source.

How the values were obtained:
cells = assay type: functional
[1] = target: T1, Mitochondrial peptide methionine sulfoxide reductase (Bos taurus, UniProt P54149); experiment: Absorbance-based biochemical high throughput dose response assay for activators of Methionine sulfoxide reductase A (MsrA).; assay type: functional
T1 sequence (P54149 whole entry): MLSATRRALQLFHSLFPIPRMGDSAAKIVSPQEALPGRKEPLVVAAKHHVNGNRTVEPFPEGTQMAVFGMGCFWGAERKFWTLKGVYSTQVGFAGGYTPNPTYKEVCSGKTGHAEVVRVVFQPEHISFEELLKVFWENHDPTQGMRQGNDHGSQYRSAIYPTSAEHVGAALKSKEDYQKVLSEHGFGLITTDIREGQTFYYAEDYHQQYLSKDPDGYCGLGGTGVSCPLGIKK

[2] = THP-1 cell cytotoxicity, dose response, cytotoxicity control for non-replicating M. tuberculosis project (AID 489025); assay type: functional
[3] = target: G-protein coupled receptor 35 (Homo sapiens, UniProt Q9HC97); experiment: GPR35 antagonists blocking zaprinast-driven arrestin recruitment, primary screen, imaging, U2OS, beta-arrestin-GFP, zaprinast agonist (AID 2058); assay type: functional;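 further: antagonist potency meaning inhibition of agonist-induced arrestin redistribution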
G-protein coupled receptor 35, sequence (Q9HC97 whole entry): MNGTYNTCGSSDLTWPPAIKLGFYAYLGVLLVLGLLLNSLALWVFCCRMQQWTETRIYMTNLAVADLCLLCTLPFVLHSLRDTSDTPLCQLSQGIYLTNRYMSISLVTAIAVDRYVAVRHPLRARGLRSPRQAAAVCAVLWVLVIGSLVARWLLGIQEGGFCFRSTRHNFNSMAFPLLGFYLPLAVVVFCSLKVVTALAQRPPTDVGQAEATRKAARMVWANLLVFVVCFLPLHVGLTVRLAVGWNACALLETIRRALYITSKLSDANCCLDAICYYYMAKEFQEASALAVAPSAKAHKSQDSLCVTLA

Exodeoxyribonuclease V = Exodeoxyribonuclease V (Escherichia coli (strain K12), UniProt P04993+P07648+P08394); experiment: E. coli RecBCD inhibitors, dose response, counter-screen for AddAB inhibitor project, absorbance, V66 E. coli, mutant T4 phage (AID 492957); assay type: functional, cell-based, Escherichia coli str. K-12 substr. MG1655
[4] = Counterscreen for AddAB inhibitors: absorbance-based bacterial cell-based high throughput dose response assay for inhibitors of bacterial viability. [Related pubchem assays (depositor defined):AID435030, AID449728, AID449731, AID488942, AID488955, AID488956]; assay type: functional
[5] = target: T2, Eukaryotic translation initiation factor 2-alpha kinase 3 (Homo sapiens, UniProt Q9NZJ5); experiment: Dose response cell-based high-throughput screening assay to measure PERK inhibition. [Related pubchem assays: 1416 ]; assay type: functional
T2 sequence (Q9NZJ5 whole entry): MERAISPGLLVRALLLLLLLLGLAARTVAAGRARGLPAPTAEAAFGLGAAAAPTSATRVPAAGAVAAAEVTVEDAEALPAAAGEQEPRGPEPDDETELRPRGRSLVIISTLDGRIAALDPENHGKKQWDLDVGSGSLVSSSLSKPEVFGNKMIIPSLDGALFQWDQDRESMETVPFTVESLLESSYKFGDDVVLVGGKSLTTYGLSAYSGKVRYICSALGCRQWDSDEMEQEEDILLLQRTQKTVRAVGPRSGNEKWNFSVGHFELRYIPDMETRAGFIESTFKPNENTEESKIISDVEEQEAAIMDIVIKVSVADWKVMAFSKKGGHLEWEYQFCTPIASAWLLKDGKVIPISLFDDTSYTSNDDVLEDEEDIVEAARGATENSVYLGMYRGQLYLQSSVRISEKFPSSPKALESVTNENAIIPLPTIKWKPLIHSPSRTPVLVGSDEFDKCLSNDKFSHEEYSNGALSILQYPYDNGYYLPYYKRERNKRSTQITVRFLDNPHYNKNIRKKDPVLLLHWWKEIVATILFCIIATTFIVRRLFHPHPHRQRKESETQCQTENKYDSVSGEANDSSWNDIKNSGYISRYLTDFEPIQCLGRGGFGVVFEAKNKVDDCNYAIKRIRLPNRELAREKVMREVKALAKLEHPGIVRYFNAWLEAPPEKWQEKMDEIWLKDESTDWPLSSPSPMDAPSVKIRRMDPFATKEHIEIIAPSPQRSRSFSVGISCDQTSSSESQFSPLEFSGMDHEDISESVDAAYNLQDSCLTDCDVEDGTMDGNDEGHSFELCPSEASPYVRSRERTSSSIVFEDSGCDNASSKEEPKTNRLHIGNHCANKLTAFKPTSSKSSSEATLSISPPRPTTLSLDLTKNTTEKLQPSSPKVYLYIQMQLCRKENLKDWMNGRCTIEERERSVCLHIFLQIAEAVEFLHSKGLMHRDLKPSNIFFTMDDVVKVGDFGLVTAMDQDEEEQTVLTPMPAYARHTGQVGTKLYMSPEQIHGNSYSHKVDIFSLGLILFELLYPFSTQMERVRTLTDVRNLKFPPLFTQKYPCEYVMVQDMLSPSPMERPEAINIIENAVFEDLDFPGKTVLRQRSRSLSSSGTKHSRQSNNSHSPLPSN

[6] = target: T2, Eukaryotic translation initiation factor 2-alpha kinase 3; experiment: Counterscreen assay for PERK inhibitors: Dose response cell-based high throughput screening assay to measure inhibition of PERK at 6 hours. [Related pubchem assays: 1522, 1416 ]; assay type: functional
[7] = target: T3, Voltage-gated N-type calcium channel alpha-1B subunit/Amyloid beta A4 precursor protein-binding family A member 1 (Homo sapiens, UniProt Q00975+Q02410); assay type: protein assay
T3 sequence (Q00975 whole entry): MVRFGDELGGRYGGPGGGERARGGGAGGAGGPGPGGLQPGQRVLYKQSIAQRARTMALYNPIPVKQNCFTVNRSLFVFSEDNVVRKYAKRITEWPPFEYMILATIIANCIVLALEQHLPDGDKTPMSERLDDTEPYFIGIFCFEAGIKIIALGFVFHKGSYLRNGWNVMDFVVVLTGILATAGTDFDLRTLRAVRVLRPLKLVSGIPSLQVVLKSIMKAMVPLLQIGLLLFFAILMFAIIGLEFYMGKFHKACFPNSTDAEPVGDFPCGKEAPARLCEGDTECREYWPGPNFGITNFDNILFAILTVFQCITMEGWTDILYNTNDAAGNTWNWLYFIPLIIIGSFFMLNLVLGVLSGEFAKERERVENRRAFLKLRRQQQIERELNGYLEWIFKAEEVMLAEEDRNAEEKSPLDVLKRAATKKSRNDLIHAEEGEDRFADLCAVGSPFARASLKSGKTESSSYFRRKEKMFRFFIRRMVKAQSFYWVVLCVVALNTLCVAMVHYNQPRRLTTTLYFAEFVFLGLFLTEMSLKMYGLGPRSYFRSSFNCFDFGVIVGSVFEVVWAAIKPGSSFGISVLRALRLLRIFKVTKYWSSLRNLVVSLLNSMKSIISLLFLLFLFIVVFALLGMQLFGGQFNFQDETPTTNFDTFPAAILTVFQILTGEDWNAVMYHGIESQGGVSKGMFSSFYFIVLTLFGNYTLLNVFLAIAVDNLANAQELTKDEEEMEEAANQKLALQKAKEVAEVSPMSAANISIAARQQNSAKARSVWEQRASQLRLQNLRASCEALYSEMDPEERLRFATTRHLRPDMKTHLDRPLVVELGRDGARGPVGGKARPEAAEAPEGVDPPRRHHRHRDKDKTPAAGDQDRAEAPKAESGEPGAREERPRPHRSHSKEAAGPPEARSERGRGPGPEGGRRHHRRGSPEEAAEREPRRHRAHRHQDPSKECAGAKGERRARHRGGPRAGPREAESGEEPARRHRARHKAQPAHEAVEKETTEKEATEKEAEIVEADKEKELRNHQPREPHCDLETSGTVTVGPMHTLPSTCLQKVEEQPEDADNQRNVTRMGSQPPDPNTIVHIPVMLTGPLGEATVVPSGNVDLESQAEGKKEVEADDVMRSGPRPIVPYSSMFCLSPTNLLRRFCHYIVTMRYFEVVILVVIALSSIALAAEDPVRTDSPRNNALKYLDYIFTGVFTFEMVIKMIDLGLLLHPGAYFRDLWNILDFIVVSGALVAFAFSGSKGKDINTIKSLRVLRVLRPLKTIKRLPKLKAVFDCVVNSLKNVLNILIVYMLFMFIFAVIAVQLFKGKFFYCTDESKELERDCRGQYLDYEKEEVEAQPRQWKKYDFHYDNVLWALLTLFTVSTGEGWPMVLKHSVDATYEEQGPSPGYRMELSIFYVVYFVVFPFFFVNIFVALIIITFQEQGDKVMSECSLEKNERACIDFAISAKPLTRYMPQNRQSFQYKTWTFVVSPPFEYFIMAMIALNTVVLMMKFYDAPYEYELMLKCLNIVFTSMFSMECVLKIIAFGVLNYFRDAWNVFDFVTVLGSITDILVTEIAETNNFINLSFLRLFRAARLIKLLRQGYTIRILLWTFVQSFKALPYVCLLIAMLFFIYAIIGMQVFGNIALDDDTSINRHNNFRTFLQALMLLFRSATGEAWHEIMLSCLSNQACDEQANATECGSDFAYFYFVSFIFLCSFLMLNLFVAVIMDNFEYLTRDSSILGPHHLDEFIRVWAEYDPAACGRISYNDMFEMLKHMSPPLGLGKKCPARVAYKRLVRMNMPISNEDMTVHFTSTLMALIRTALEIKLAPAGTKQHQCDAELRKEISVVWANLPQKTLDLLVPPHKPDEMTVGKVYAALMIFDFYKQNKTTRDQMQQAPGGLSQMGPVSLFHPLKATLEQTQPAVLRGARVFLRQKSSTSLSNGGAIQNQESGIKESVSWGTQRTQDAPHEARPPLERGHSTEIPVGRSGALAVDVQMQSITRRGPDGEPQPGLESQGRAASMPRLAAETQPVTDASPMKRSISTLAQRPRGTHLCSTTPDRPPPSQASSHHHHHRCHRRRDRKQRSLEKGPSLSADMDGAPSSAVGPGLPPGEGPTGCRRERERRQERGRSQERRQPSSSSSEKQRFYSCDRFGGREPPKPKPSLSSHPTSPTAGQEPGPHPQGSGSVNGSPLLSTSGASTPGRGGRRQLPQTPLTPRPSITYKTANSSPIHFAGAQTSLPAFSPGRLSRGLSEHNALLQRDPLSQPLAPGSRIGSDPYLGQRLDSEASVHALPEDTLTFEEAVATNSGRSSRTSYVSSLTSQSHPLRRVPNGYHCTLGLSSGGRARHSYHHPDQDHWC
T3 sequence (Q02410 whole entry): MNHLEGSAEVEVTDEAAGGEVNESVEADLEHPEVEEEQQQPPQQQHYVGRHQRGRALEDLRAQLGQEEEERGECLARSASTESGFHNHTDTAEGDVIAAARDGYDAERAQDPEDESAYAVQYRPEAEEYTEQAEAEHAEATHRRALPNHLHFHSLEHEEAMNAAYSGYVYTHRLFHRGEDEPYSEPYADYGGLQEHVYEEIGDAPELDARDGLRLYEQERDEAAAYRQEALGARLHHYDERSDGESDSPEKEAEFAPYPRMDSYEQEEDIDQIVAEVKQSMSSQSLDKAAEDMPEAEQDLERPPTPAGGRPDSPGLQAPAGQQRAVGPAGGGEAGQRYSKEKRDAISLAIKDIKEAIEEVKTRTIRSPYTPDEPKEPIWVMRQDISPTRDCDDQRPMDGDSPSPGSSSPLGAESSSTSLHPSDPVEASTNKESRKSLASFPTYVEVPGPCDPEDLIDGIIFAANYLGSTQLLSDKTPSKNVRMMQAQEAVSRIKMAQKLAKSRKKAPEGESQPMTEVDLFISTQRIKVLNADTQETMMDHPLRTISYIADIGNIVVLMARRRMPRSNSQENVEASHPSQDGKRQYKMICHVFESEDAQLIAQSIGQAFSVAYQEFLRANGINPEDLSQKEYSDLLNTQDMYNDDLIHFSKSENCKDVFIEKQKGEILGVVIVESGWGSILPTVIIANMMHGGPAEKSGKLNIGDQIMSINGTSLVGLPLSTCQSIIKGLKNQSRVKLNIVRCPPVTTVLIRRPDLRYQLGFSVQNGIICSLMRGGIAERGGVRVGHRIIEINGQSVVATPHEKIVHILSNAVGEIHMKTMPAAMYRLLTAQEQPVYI

[8] = target: T3, Voltage-gated N-type calcium channel alpha-1B subunit/Amyloid beta A4 precursor protein-binding family A member 1; assay type: protein assay; remark: listed apart in the source
Procathepsin L = Procathepsin L (Homo sapiens, UniProt P07711)
Procathepsin L, sequence (P07711 whole entry): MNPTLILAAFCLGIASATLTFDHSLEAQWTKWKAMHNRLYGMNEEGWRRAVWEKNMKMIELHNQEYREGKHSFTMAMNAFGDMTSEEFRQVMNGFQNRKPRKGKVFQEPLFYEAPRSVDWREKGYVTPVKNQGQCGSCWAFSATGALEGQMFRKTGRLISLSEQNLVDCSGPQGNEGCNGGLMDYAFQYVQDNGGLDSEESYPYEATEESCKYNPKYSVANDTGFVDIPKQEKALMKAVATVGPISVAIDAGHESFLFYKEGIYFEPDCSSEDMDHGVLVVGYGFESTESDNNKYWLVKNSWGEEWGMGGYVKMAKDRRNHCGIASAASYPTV

Aspartyl aminopeptidase = Aspartyl aminopeptidase (Plasmodium falciparum 3D7, UniProt Q8I2J3)
Aspartyl aminopeptidase, sequence (Q8I2J3 whole entry): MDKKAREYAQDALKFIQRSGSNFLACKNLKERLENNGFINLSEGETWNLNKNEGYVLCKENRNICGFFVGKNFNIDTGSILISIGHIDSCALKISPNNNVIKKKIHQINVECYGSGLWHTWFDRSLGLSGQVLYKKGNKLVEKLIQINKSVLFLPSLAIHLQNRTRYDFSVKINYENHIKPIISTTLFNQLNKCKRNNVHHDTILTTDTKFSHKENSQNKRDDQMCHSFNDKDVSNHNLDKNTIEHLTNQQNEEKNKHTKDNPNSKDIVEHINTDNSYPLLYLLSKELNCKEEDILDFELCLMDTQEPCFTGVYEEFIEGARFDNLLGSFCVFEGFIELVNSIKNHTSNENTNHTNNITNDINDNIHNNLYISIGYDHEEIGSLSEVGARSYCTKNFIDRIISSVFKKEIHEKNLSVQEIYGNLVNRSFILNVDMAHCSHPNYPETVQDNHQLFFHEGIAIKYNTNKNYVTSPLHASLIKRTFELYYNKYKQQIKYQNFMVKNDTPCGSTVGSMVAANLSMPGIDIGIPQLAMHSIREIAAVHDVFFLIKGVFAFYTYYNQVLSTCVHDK

[9] = cytotoxicity in HEK-293T cells, dose response, cytotoxicity control for BCR NF-kB inhibitor project, luminescence, B-cell screen hits (AID 489021); assay type: functional, cell-based;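 further: HEK-293T cells carrying an NF-kB luciferase reporter; cells exposed to compound for about 14 hours before viability readout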
BJ [10] = experiment: cytotoxicity toward BJ-TERT-LT-ST fibroblasts, dose response, cell-based, RAS-independent, luminescence (AID 1935); assay type: functional; conditions: Homo sapiens;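 further: BJ fibroblasts immortalized with TERT plus LT and ST oncogenes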
[11] = cytotoxicity in MIN6 insulinoma cells, dose response, cytotoxicity control, cell-based, mouse insulinoma (AID 2122); assay type: functional;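 further: confirmatory high-throughput counterscreen run to flag cytotoxic compounds; mouse MIN-6 beta cells carrying an insulin promoter eGFP reporter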
[12] = insulin promoter down-regulators in MIN6 cells, imaging, high-content screening, mouse beta cells (AID 1628); assay type: functional
BJ [13] = experiment: cytotoxicity toward Ras-transformed BJeLR fibroblasts, dose response, cell-based, alamar blue fluorescence, cherrypicked samples (AID 2631); assay type: functional; conditions: Homo sapiens;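 further: confirmatory dose-response assay in RAS-dependent BJ fibroblasts engineered with TERT, LT and ST, with cytotoxicity read by fluorescence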
[14] = cytotoxicity toward DRD oncogenic fibroblasts, dose response, cell-based, non-viral oncogenic, luminescence (AID 1934); assay type: functional; conditions: Homo sapiens
BJ [15] = experiment: cytotoxicity toward BJ-TERT fibroblasts, dose response, cell-based, RAS-independent, luminescence (AID 1933); assay type: functional; conditions: Homo sapiens
BJ [16] = experiment: cells; assay type: functional, cell-based; conditions: Homo sapiens

## CCN(CC)c1ccc(-c2sc(Nc3ccccc3)n[n+]2-c2ccc(F)cc2)cc1
cells
  IC50: 14 µM (active)
[1]
  EC50: > 104 µM (inactive)
[2]
  CC50: 26.4 µM (active)
[3]
  IC50: 0.626 µM (active)

## COc1ccc(Nc2nnc(SCc3cn4c(C)cccc4n3)s2)cc1
Exodeoxyribonuclease V
  IC50: > 119 µM (inactive)
[4]
  IC50: > 119 µM (inactive)

## CC(C)(C)c1ccc(C(=O)Oc2ccccc2CCC(=O)O)cc1
[5]
  EC50: > 55.7 µM (not active)
[6]
  EC50: > 55.7 µM (not active)

## CCn1cc(C(=O)NCCc2ccccc2)c(=O)c2cc(F)c(N3CCN(C)CC3)cc21
Exodeoxyribonuclease V
  IC50: > 118 µM (inactive)
[4]
  IC50: 27.1 µM (inactive)

## Nc1ccc2[nH]c(-c3ccc(N)c(Cl)c3)nc2c1
[7]
  IC50: 35.6 µM (active)
[8]
  IC50: 4.1 µM (active)

## c1ccc(NCn2cncn2)nc1
Procathepsin L
  IC50: > 59.6 µM (not active)
Aspartyl aminopeptidase
  IC50: 2.56 µM (active)

## COc1ccc(-c2ccoc2)cc1[C@H]1[C@H]2C=CC[C@@H](C)[C@@H]2C(=O)N1Cc1ccccc1
[9]
  IC50: > 80 µM (inactive)

## O=C(NCc1cccnc1)c1ccc(NC(=O)c2cccc([N+](=O)[O-])c2)cc1
BJ [10]
  EC50: 19.3 µM (active)
[11]
  IC50: > 16 µM (inactive)
[12]
  IC50: 0.576 µM (active)
BJ [13]
  EC50: 36 µM (active)
[14]
  EC50: > 150 µM (not active)
BJ [15]
  EC50: 27.4 µM (active)
BJ [16]
  EC50: 2.19 µM (inconclusive)

## CCn1nc(C)c(CN2CCc3c([nH]c4ccccc34)C2c2ccc(F)c(OC)c2)c1C (centres undefined)
[11]
  IC50: 13.6 µM (inactive)
[12]
  IC50: 2.29 µM (active)
